Experiments:
IFNβ promoter = test: IFNβ reporter induced by over-expression of RIG-I, MAVS or TBK1 in 293T cells; assay type: cell-based, human
Namalwa cells = test: RT-PCR of virus induced IFNβ gene expression in Namalwa cells; assay type: cell-based, human
[1] = test system: endogenous TNF target genes; test: RT-PCR of TNF induced gene expression in 293T cells; assay type: cell-based, human; conditions: 6 hrs
293T cells [2] = test: Western blot analysis of apoptosis and autophagy; assay type: cell-based, human; conditions: 8 hours, bufalin 1 nM to 10 μM, staurosporine 4 μM
Procedure: (§1) The cells were also exposed to 0.1% Triton X-100 for 1 hr before the viability assay as a control (FIG. 16E). Data represent mean values±s.d. (n=3). […] Cells were harvested and washed, then stained with Allophycocyanin (APC) conjugated Annexin V and 7-AAD for 15 minutes and subjected to flow cytometry analysis. The number in each graph is the percentile of Annexin V or 7-AAD positive populations. […] Total protein lysates were prepared and separated on SDS-PAGE for Western blot analysis of PARP1, cleaved PARP1, cleaved Caspase3, LC3B, ATP1a1, and beta-actin expression.
Apoptosis and autophagy were also analyzed by Western blots. […] Total protein lysates were prepared and separated on SDS-PAGE for Western blot analysis of PARP1, cleaved PARP1, cleaved Caspase3, LC3B, ATP1a1, and beta-actin expression.

[3] = test system: IFNβ and CXCL10 gene expression; test: RT-PCR of dsRNA (poly I:C) and dsDNA (poly dA:dT) induced gene expression in 293T cells; assay type: cell-based, human; conditions: 1 uM, 6 hrs
[4] = test system: virus inducible genes in 293T cells; test: Microarray and RT-PCR of gene expression in 293T cells treated with bufalin and/or SeV; assay type: cell-based, human
MAP kinase P42/p44 = test: EGF induced phosphorylation of MAP kinase in 293T cells; assay type: cell-based, human; conditions: 1 μM
Hela and MG63 cells = test: RT-PCR of IFNβ gene induction in Hela and MG63 cells; assay type: cell-based, human
[5] = test system: PRDIII/I element of the IFNβ promoter; assay type: cell-based, human; conditions: 1 uM, compared with no drug treatment
293T cells [6] = test: Intracellular sodium concentration measurement (SBFI) in 293T cells; assay type: cell-based, human; conditions: 1 μM, 30 minutes; from about 20 mM without
Procedure: Bound RIG-I protein was analyzed by western blot (top panel). The expression of IFNβ and Cxcl 10 genes in these cells was also analyzed by RT-PCR (bottom panel). FIG. 3B, high salt concentration inhibits RIG-I helicase activities while the effect on RNA binding is minor. Recombinant RIG-I protein was incubated with dsRNA (67 bp) in the presence of increasing NaCl and KCl concentrations. RNA binding was monitored by native agarose gel analysis (top panel). For the ATPase activities, samples were adjusted to 1 mM ATP and further incubated for 15 min at 37° C., free phosphate released was measured with BIOMOL GREEN reagent. The image of the plate was shown in the bottom panel, and signals from the reading were quantified and graphed in the middle panel. The lanes of the gel, bars of the graph and wells in the ATPase assay are aligned according to experimental conditions. […] 293T cells were loaded with 10 μM SBFI-AM in the presence of 0.02% Pluronic F-127 for 1 hour at 37° C. […] To generate the standard curve, SBFI-Am loaded cells were exposed to solutions with increasing concentrations of sodium in the presence of 10 μM gramicidin for 30 minutes at 37° C. and 340/380 nm fluorescence ratio determined. […]

LPS signaling = test: LPS induced gene expression in THP-1 cells; assay type: cell-based, human; conditions: 1 μM
patients = conditions: huachansu, Meng et al.; cited from earlier work
mice = test: LPS induced lethality in mice; assay type: in vivo; conditions: 15 μg/mouse i.p. 30 min before LPS 80 mg/kg i.p.; 4 days
[7] = test system: PRDIV element of the IFNβ promoter; assay type: cell-based, human; conditions: absence of virus infection
293T cells [8] = test: Flow cytometry analysis of apoptosis (Annexin V / 7-AAD); assay type: cell-based, human; conditions: bufalin 1 μM 8 hours; staurosporine 4 μM 4 hours
Procedure: as §1
Treated cells and untreated control cells were harvested and washed with PBS, and stained with APC conjugated Annexin V and 7-AAD (both from BD Biosciences) in Annexin V binding buffer (10 mM HEPES, pH 7.4, 140 mM NaCl, 2.5 mM CaCl2) for 15 minutes at room temperature, and then subjected to flow cytometry analysis on a FACSCalibur (BD Biosciences).
Cells were harvested and washed, then stained with Allophycocyanin (APC) conjugated Annexin V and 7-AAD for 15 minutes and subjected to flow cytometry analysis. […] 11 for sturosporine.

C[C@]12CC[C@H](O)C[C@H]1CC[C@@H]1[C@H]2CC[C@]2(C)[C@@H](c3ccc(=O)oc3)CC[C@]12O [Bufalin]
IFNβ reporter induction by MAVS over-expression (IFNβ promoter): no effect
IFNβ reporter induction by TBK1 over-expression (IFNβ promoter): little effect
virus induction of the IFNβ reporter when RIG-I was over-expressed (IFNβ promoter): only slightly reduced
virus-induced IFNβ gene expression in Namalwa cells (Namalwa cells): Strong inhibition
expression of endogenous TNF target genes [1]: significantly inhibited
cleavage products of PARP1 and Caspase3 (indication of apoptosis) (293T cells [2]): not observed
induction of LC3B-II (marker of autophagy) (293T cells [2]; BFA 100 nM): not observed
IFNβ and CXCL10 gene expression in response to poly I:C and poly dA:dT [3]: strongly inhibited
IFNβ induction in cells preinfected with virus ([4]; SeV 1.5 hours, then 1 μM for 6 hours): strongly inhibits
induction of virus-induced genes (IFNβ, IL-8, IFIT1-3, ISG15, OASL, CXCL10, CCL5) ([4]; bufalin plus SeV, 8 hrs): completely blocked
EGF induced phosphorylation of MAP kinase P42/p44 (MAP kinase P42/p44): no effect
poly I:C and poly dA:dT induced IFNβ expression in Hela and Mg63 cells (Hela and MG63 cells): strongly inhibited
virus induced IFNβ expression in Hela and MG63 cells (Hela and MG63 cells): less than observed with 293T and Namalwa cells
repression of viral induction of luciferase expression, PRDIII/I reporter [5]: > 86%
intracellular sodium concentration (293T cells [6]): over 120 mM
LPS induction of Il-8, TNF and IKBa (LPS signaling): minimal
LPS induced expression of Cxcl10 gene (LPS signaling; LPS 20 ng/ml, 2 hours): impaired
well tolerated concentration of bufalin in patients (patients): up to 9 nM
lethality induced by a high dose of LPS (mice): partially reduce
activity of PRDIV reporter [7]: weakly induced
Percentile of Annexin V or 7-AAD positive populations (293T cells [8]): 1.95

— patent US20140088056A1, “CARDIAC GLYCOSIDES ARE POTENT INHIBITORS OF INTERFERON-BETA GENE EXPRESSION” (priority 2010, published 2014)
